From publication PMC12412968, “Indolicidin derivatives as potent dual-action antifungal and antibacterial agents for the treatment of skin infections: A comprehensive study from in vitro to in vivo evaluation” (PLOS One, 2025) come the findings set out here.

For one series, the system named is trypsin. In words: Enzymatic stability with trypsin. In kind it is in vitro ADME. The conditions noted are these: 40 µM in PBS pH 8.0, 0.0005% trypsin, 37°C, 600 rpm, 15 and 30 minutes, HPLC-DAD 280 nm, duplicate.
Series [1] has as its system S. aureus, S. epidermidis, E. coli, K. pneumoniae, E. faecium, and P. aeruginosa. In kind it is cell-based. The note with it: Staphylococcus aureus, Staphylococcus epidermidis and Enterococcus faecium. The procedure:
(§1) Bacteria (S. aureus, P. aeruginosa, S. epidermidis, E. coli, K. pneumoniae, Enterococcus) and Candida albicans from ATCC were cultured in appropriate media, adjusted to 10^6 CFU/mL before testing. The bacteria and fungal, taken from a deep freezer, were revived by culturing them in a nutrient-rich medium, to grow and form distinct colonies. These colonies were then diluted with physiological saline to reach a turbidity equivalent to 0.5 McFarland, corresponding to a bacterial and fungal concentration of 10⁸ CFU/mL. This suspension was further diluted with 0.9% saline to achieve a concentration of 10⁶ CFU/mL. Subsequently, the bacterial and fungal suspension were diluted 100-fold in Brain-Heart Infusion (BHI) broth to achieve a final concentration of 10⁴ CFU/mL. This bacterial and fungal suspension were used to determine the MIC values in the experiments. Peptides (IND and IND-4,11K) were diluted by 2-fold serial dilution in the range of […] and tested in 96-well plates containing Muller-Hinton (MH) medium. After adding bacteria (10^4 CFU/mL), the samples were incubated at 37°C for 24 h. MIC was determined as the lowest peptide concentration at which no bacterial growth was observed by measuring the optical density OD620 nm. […] The positive controls were Streptomycin for Gram-negative bacteria and Penicillin for Gram-positive bacteria. The negative control was 1X PBS solution. The positive control for antifungal activity was Nystatin.All experiments were performed in triplicate.

In another series the test system is Enterococcus faecium. It is filed as cell-based. The conditions noted are these: 24 h. The procedure:
as §1

For a further series, the system named is Klebsiella pneumoniae. In kind it is cell-based. The note with it: 24 h. The procedure: as §1
For a further series, the system named is Pseudomonas aeruginosa. It is filed as cell-based. The note with it: 24 h. The procedure: as §1
In series [2] the test system is Staphylococcus epidermidis. It is filed as cell-based. The note with it: 24 h. The procedure: as §1
The next series has as its system Candida albicans. In kind it is cell-based. The note with it: 24 h. The procedure:
as §1

The subject of another series is Staphylococcus aureus. It is filed as cell-based. The note with it: 24 h. As for the experimental part:
as §1

For series [3] the following is noted: 64 µM in PBS pH 7.4, 25, 45, 65, 85°C and 37°C, shaking 600 rpm, HPLC-DAD 280 nm, tryptophan internal standard, duplicate. The procedure:
Peptides were dissolved in phosphate-buffered saline (PBS, pH 7.0) and 10% SDS solution. The peptide concentration was determined by direct weighing and mixing. The secondary structure was analyzed using a circular dichroism (CD) spectrometer. Peptides (64 µM) were dissolved in PBS (pH 7.4) with tryptophan as an internal standard. The solution was incubated at 25°C, 45°C, 65°C, and 85°C with shaking at 600 rpm. Peptide quantification was performed using HPLC-DAD at 280 nm with an injection volume of 20 µL. Each experiment was conducted in duplicate, and data were processed using Excel based on peak areas of tryptophan and peptide. Peptides (40 µM) were dissolved in PBS (pH 8.0) and incubated with 0.0005% trypsin at 37°C under shaking (600 rpm). Samples were collected at 0, 15, and 30 minutes and analyzed by HPLC-DAD at 280 nm with an injection volume of 40 µL [20, 21].

Another series deals with red blood cell. In words: Hemolysis assay. It is filed as cell-based. An excerpt: The hemolysis assay results indicated a concentration-dependent effect of the peptides on red blood cell membrane integrity.
Setting [4] is: broth dilution, 96-well, MH medium, 10^4 CFU/mL, 37°C, OD620, triplicate.
[5] abbreviates: plated from MIC well and higher onto MH agar, triplicate.

≈ marks a conversion by molar mass, not a printed value. Read-outs that look alike come from different tables or passages of the source. Ends that are not written are not given here.

On to `CC[C@H](C)[C@H](N)C(=O)N[C@@H](CC(C)C)C(=O)N1CCC[C@H]1C(=O)N[C@@H](Cc1c[nH]c2ccccc12)C(=O)N[C@@H](CCCCN)C(=O)N[C@@H](Cc1c[nH]c2ccccc12)C(=O)N1CCC[C@H]1C(=O)N[C@@H](Cc1c[nH]c2ccccc12)C(=O)N[C@@H](Cc1c[nH]c2ccccc12)C(=O)N1CCC[C@H]1C(=O)N[C@@H](Cc1c[nH]c2ccccc12)C(=O)N[C@@H](CCCNC(=N)N)C(=O)N[C@@H](CCCNC(=N)N)C(N)=O` [IND, Indolicidin], for which, in the series on trypsin, the “Enzymatic stability with trypsin” value is reported as “significant degradation”. The “MIC (range over organisms)” value in series [1] was 8 to 64 µM. For the same molecule, the MIC (commonly the lowest concentration that inhibits growth of the organism) in the series with Enterococcus faecium (setting [4]) is listed as 32 µM (≈ 61 µg/mL); with Klebsiella pneumoniae (setting [4]), >128 µM; with Pseudomonas aeruginosa (setting [4]) it was >128 µM; in [2] (setting [4]) it was 8 µM (≈ 15.3 µg/mL); in the series with Candida albicans (setting [4]), 64 µM (≈ 122 µg/mL); against Staphylococcus aureus (setting [4]), 64 µM (≈ 122 µg/mL). Also, the MBC with Enterococcus faecium (setting [5]) was 32 µM (≈ 61 µg/mL); in the series with Klebsiella pneumoniae (setting [5]), >128 µM; with Pseudomonas aeruginosa (setting [5]), >128 µM; in series [2] (setting [5]), 8 µM (≈ 15.3 µg/mL); in the series on Candida albicans (setting [5]), >128 µM; in the series with Staphylococcus aureus (setting [5]), 64 µM (≈ 122 µg/mL). For the same molecule, the “Thermal stability (retention time and peak area)” value in [3] is reported as “remained largely unchanged”. Further, the Hemolysis activity in the series on red blood cell (peptide 2 uM) stood at 3.04 ± 0.29%; in the series on red blood cell (peptide 4 uM), 2.51 ± 0.24%; in the series on red blood cell (peptide 8 uM) it was 3.05 ± 0.34%; in the series on red blood cell (peptide 16 uM), 4.89 ± 0.03%; with red blood cell (peptide 32 uM) it was 10.33 ± 1.06%; in the series with red blood cell (peptide 64 uM), 18.09 ± 1.57%. In the series with red blood cell (peptide 128 uM), this molecule registered a Hemolysis activity of 30.91 ± 2.27%.
As to ILKWKWPWWKWRR-NH2 [IND-4,11K], in the series with trypsin, the “Enzymatic stability with trypsin” value is reported as “significant degradation”. The MBC stood at 32 µM with Enterococcus faecium; 128 µM in the series with Klebsiella pneumoniae; 128 µM in the series on Pseudomonas aeruginosa; 8 µM in series [2]; 32 µM in the series on Candida albicans; 48 µM against Staphylococcus aureus. The MIC is 32 µM in the series with Enterococcus faecium; 128 µM against Klebsiella pneumoniae; 128 µM against Pseudomonas aeruginosa; 8 µM in [2]; 32 µM in the series with Candida albicans; 48 µM with Staphylococcus aureus. For the same molecule, the “Thermal stability (retention time and peak area)” value in series [3] is on record as “remained largely unchanged”.
